Measured values from PMC3832545 (PLoS ONE, 2013).
Marks after values point to notes of the source that are not given here.

Key:
MC38 cell allografts = assay: Growth of MC38 cell tumor allografts in mice with diet-induced obesity; format: in vivo, mouse; details: 600 nmol/kg sc twice daily; for Tumor end volume, mean / Tumor end volume, fold change relative to vehicle: day 14; for AUC tumor growth, mean / AUC tumor growth, fold change relative to vehicle: day 0 to 14
Method: We focused on different endpoints in these animal experiments and monitored tumor growth in all experiments, see Table 1. The animal experiments were performed as described recently. […] Animal care and treatments were conducted in accordance with established guidelines and protocols approved by the Lady Davis Institute (protocol # 5951) and McGill University's Animal Ethics Committee. Mice were housed one mouse per cage with ad libitum access to tap water and high- or low fat diet, respectively, throughout the studies. The temperature in the animal rooms was maintained at 20-25°C with a light/dark cycle of 14/10 hours. Mice were acclimatized for 7-10 days before experimental procedures were initiated. At experimental day 0, 2.0×10^5 (experiment A) or 5.0×10^5 (all other experiments) MC38 cells, suspended in 100 μl phosphate-buffered saline (PBS), were injected subcutaneously (sc) in the right flank of the mice. […] The size of the tumor allografts was measured three times per week and the volume calculated using the following formula: length × width^2 × 0.52. Based on the tumor volume data for each mouse, we calculated the area under the tumor growth curves (tumor growth AUC). At termination of the experiments, mice were anesthetized with isoflurane. Blood was collected by cardiac puncture and immediately after euthanasia by cervical dislocation, samples of the liver, colon, gastrocnemius muscle and the MC38 cell tumor allografts were dissected out and snap-frozen in liquid nitrogen for later preparation of tissue lysate. The effect of treatment on tumor growth in each of the five animal experiments were analysed in a one-way ANOVA followed by pairwise comparison of each treatment with vehicle using multiple t-tests with Dunnetts correction for each of the two tumor growth endpoints; tumor end volume and area under the tumor growth curves (tumor growth AUC). The results of this analysis for each experiment, i.e., mean values for each treatment, 95% confidence intervals and the fold change of each treatment relative to vehicle, are shown in Table 3. To examine treatment-related effects on tumor growth across all five animal experiments, we for each endpoint (tumor end volume and tumor growth AUC) pooled all data in one dataset and analysed them in a mixed linear model with treatment as a fixed explanatory variable and experiment as a random effect. No significant interaction between treatment and experiment was found for the any of the two outcomes (tumor end volume and tumor growth AUC). To further explore the differences between treatments, pairwise comparisons of each type of treatment were done using multiple t-test with Bonferonni correction. No outliers were observed among the 131 observations of tumor end volume, whereas one outlier was identified among the 131 observations of tumor growth AUC.

MC38 cells = assay: MTT cell proliferation assay, MC38 cells; format: cell-based, mouse; details: 24 h, 0.25% (v/v) serum, 0.001 to 1000 nM, three independent experiments with four replicates
Method: Effect of test compounds on proliferation was assessed with 3-(4,5-dimethylthiazol-2-yl)-2,5-diphenyl tetrazolium bromide (MTT) assays, essentially as described previously. In brief, MC38 cells were plated in 96-well plates (5,000 cells per well) in growth medium. […] Data for relative cell numbers from the three repeated experiments, each with four replicate samples per condition, were then used to fit dose-response curves using GraphPad Prism version 6.0 (GraphPad Software Inc., La Jolla, CA, USA). Cell proliferation experiments were done with MCF-7 cells as described for MC38 cells, except that 20,000 cells were plated per well. See Materials S1 and Figure S1 for detailed supplementary information regarding cell proliferation experiments.
In initial tests the association between number of cells and absorbance at 570 nm measured in an MTT assay was examined after incubation of MC38 cells with MTT for 3 h, 3 h after plating different number of cells per well, i.e., the total incubation period was 6 h. As expected there was a highly linear relationship between absolute number of cells and the measured absorbance (Figure S1). […] After incubation for 1 day cells were rinsed in PBS (room temperature) and then starvation medium was added. […] Control samples were treated with starvation medium only. After treatment for 21 h, 10 µl stock solution of MTT dissolved in PBS (5.0 mg/ml) was added to each well, and incubation was continued for 3 h so treatment with test compounds in total lasted 24 h. At the end of the treatment period medium with test compounds was removed and formazan crystals were suspended by adding 100 µl 0.04 M HCl dissolved in isopropanol to each well and absorbance was thereafter read at 570 nm using a Emax PC plate reader (Molecular Devices LLC, Sunnyvale, CA, USA). Each treatment was done with four replicate samples and three independent experiments were performed. In each experiment the absorbance was normalized to the mean absorbance in the untreated control samples. […]

[1] = Blood glucose (pharmacodynamics) after sc injection in DIO-mice; format: in vivo, mouse; details: 600 nmol/kg sc, n = 8
Excerpt: Blood was collected by puncture of the saphenous vein and blood glucose measured using a OneTouch Ultra Glucometer (LifeScan, Inc., Milpitas, CA, USA).

[2] = all experiments (A–E) pooled, mixed linear model, DIO-mice
[3] = all experiments (A–E) pooled, mixed linear model, one outlier excluded, DIO-mice
[4] = experiment C, n = 6, 5.0×10^5 MC38 cells sc, DIO-mice
[5] = experiment D, n = 8–10, 5.0×10^5 MC38 cells sc, DIO-mice
[6] = experiment A, n = 6, 2.0×10^5 MC38 cells sc, DIO-mice
[7] = experiment A, n = 6, 2.0×10^5 MC38 cells sc, male C57BL/6 DIO-mice
[8] = experiment B, n = 6, 5.0×10^5 MC38 cells sc, DIO-mice
[9] = experiment E, n = 10, 5.0×10^5 MC38 cells sc, DIO-mice

Row | Substance | Tumor end volume, mean (MC38 cell allografts; [2]) [mm^3] | AUC tumor growth, mean (MC38 cell allografts; [3]) [day × mm^3] | AUC tumor growth, mean (MC38 cell allografts; [4]) [day × mm^3] | Tumor end volume, mean (MC38 cell allografts; [4]) [mm^3] | AUC tumor growth, mean (MC38 cell allografts; [5]) [day × mm^3] | Tumor end volume, mean (MC38 cell allografts; [5]) [mm^3] | Ranking according to mitogenic potency (MTT assay) (MC38 cells) | Effect on blood glucose [1] | Time until blood glucose returned to basal levels [1] [h] | AUC tumor growth, mean (MC38 cell allografts; [6]) [day × mm^3] | Tumor end volume, mean (MC38 cell allografts; [7]) [mm^3] | AUC tumor growth, mean (MC38 cell allografts; [8]) [day × mm^3] | Tumor end volume, mean (MC38 cell allografts; [8]) [mm^3] | AUC tumor growth, mean (MC38 cell allografts; [9]) [day × mm^3] | Tumor end volume, mean (MC38 cell allografts; [9]) [mm^3] | also measured
1 | IGF-1: recombinant human IGF-1 (Increlex, IPSEN Pharma GmbH) | 686.3 | 2499.8 | 2596.8 | 724.6 | 2207.1 | 616.0 | X10≥IGF-1>HI | rapidly lowered blood glucose | 3 to 4 | – | – | – | – | – | – | –
2 | human insulin [HI] | 409.5 | 1542.1 | 1309.5 | 374.5 | 1483.0 | 397.7 | X10≥IGF-1>HI | rapidly lowered blood glucose | 3 to 4 | 1539.6 | 439.3 | 1725.4 | 434.3 | 1421.9 | 365.6 | –
3 | insulin analog B10Asp [X10] | 500.5 | 1851.9 | 2060.9 | 646.8 | 1394.4 | 345.8 | X10≥IGF-1>HI | rapidly lowered blood glucose | 3 to 4 | 1880.9 | 500.7 | 2167.5 | 558.4 | 1836.1 | 427.0 | Tumor end volume, fold change relative to vehicle (MC38 cell allografts; [2]): 1.5 ^* fold; AUC tumor growth, fold change relative to vehicle (MC38 cell allografts; [3]): 1.5 ^* fold; AUC tumor growth, fold change relative to vehicle (MC38 cell allografts; [6]): 0.9 fold; Tumor end volume, fold change relative to vehicle (MC38 cell allografts; [6]): 1.0 fold; AUC tumor growth, fold change relative to vehicle (MC38 cell allografts; [8]): 1.8 fold; Tumor end volume, fold change relative to vehicle (MC38 cell allografts; [8]): 1.7 fold; AUC tumor growth, fold change relative to vehicle (MC38 cell allografts; [4]): 1.8 ^* fold; Tumor end volume, fold change relative to vehicle (MC38 cell allografts; [4]): 2.0 ^* fold; AUC tumor growth, fold change relative to vehicle (MC38 cell allografts; [5]): 1.6 fold; Tumor end volume, fold change relative to vehicle (MC38 cell allografts; [5]): 1.9 fold; AUC tumor growth, fold change relative to vehicle (MC38 cell allografts; [9]): 1.4 fold; Tumor end volume, fold change relative to vehicle (MC38 cell allografts; [9]): 1.3 fold
